In patent publication US11548870B2, “Compounds useful as inhibitors of helios protein” (Bristol-Myers Squibb Company, priority 2019, dated 2023):

Key:
Helios = biological target: T1, Helios (Homo sapiens, UniProt Q96SW2+Q9UKS7); test: Helios Cellular Degradation Assay (flow cytometry, Helios-PE antibody staining, 72 h); assay type: cell-based; details: Jurkat cells, 72 h incubation, flow cytometry; for Dmax: Jurkat, read-out: Helios Dmax
T1 construct: fluorescently labelled antibodies against Helios and Ikaros; endogenous in cells; host or cells: Jurkat cells
T1 sequence (Q9UKS7 whole entry): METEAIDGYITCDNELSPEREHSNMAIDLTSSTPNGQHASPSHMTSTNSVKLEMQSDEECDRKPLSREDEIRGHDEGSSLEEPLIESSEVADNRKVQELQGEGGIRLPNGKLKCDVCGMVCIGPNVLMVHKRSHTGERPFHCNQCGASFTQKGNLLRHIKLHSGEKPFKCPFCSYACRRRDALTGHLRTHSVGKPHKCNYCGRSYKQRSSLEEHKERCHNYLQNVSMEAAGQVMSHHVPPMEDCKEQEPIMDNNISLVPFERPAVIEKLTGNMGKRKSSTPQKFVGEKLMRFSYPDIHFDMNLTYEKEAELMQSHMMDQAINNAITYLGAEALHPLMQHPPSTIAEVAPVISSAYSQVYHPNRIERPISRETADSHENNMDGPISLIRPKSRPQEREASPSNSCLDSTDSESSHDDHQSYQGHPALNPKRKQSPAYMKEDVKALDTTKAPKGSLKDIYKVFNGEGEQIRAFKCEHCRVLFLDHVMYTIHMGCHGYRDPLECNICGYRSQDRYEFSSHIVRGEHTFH
T1 sequence (Q96SW2 whole entry): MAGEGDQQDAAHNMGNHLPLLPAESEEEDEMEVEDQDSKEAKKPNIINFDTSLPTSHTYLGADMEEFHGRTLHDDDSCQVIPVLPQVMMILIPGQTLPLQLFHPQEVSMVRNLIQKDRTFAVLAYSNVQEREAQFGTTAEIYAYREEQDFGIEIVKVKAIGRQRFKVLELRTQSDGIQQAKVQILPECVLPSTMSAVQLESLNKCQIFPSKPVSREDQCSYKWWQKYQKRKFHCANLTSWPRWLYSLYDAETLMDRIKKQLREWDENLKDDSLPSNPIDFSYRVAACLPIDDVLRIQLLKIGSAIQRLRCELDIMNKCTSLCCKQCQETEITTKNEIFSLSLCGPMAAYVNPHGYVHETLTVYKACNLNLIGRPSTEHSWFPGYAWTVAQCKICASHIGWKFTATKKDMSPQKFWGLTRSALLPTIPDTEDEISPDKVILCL
T1 sequence (Q16531 whole entry partner): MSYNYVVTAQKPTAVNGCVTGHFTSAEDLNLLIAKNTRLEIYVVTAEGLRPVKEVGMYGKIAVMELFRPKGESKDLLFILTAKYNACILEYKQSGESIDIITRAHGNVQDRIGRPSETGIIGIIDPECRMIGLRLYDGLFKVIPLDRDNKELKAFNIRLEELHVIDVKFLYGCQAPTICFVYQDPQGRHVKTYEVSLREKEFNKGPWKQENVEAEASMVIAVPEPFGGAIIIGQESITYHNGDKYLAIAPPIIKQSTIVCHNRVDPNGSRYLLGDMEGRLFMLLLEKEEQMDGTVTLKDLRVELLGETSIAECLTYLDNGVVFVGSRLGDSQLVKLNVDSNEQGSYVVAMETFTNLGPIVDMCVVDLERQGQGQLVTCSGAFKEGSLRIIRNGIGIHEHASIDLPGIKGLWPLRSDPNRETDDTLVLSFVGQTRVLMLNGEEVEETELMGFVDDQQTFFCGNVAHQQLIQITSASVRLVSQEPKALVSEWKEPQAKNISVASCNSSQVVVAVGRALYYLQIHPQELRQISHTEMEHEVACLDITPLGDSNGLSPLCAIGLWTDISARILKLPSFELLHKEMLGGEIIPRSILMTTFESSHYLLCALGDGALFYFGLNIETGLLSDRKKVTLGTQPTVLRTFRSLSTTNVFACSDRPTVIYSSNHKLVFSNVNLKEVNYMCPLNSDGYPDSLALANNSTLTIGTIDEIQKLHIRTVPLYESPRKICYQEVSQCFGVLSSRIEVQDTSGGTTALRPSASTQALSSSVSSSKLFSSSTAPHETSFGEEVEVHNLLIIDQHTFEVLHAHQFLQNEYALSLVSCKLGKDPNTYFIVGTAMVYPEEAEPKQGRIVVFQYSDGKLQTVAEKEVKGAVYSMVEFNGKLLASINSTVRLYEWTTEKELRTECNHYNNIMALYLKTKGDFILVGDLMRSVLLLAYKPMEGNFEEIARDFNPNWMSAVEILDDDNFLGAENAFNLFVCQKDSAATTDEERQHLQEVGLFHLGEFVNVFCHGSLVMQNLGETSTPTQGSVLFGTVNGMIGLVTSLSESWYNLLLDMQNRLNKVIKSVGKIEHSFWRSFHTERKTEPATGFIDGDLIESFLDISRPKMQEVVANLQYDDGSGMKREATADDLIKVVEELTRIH
Method in brief: (§1)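 Jurkat cells (80,000/well, RPMI+10% FBS) were exposed to compound for 72 h at 37 °C, then fixed, permeabilized and co-stained for 1 h with Ikaros-Alexa488 and Helios-PE antibodies. Intracellular protein levels were read by flow cytometry.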

Ikaros = biological target: T2, Ikaros (Homo sapiens, UniProt Q13422); test: Helios Cellular Degradation Assay, Ikaros readout (flow cytometry, Ikaros-Alexa488 antibody staining, 72 h); assay type: cell-based; details: Jurkat cells, 72 h incubation, flow cytometry; for Dmax: Jurkat, read-out: Ikaros Dmax
T2 construct: fluorescently labelled antibodies against Helios and Ikaros; endogenous in cells; host or cells: Jurkat cells
T2 sequence (Q96SW2 whole entry partner): as the sequence (Q96SW2 whole entry) above
T2 sequence (Q16531 whole entry partner): as the sequence (Q16531 whole entry partner) above
T2 sequence (Q13422 whole entry): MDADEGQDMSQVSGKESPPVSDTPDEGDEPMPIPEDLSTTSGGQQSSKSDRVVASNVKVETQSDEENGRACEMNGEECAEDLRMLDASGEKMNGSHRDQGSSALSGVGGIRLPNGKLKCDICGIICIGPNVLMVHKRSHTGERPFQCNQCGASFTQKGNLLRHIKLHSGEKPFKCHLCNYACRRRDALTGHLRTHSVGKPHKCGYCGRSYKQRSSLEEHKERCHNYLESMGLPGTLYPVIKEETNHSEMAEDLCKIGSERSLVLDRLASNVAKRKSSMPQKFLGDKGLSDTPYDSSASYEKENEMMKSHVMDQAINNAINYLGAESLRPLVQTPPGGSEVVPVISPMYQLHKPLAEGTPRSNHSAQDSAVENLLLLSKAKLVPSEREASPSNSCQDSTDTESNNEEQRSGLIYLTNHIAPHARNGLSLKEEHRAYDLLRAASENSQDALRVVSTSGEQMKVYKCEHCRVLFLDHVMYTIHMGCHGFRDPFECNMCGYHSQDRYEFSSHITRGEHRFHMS
Method in brief: as §1

| SMILES | DC50 (Helios) [nM] | Dmax (Helios) [%] | DC50 (Ikaros) [nM] | Dmax (Ikaros) [%] |
| --- | --- | --- | --- | --- |
| COC1(C)CN(Cc2ccnc(-c3ccc4c(c3)CN(C3CCC(=O)NC3=O)C4=O)c2)C1 (centres unmarked) [Example 196, 3-(5-(4-((3-methoxy-3-methylazetidin-1-yl)methyl)pyridin-2-yl)-1-oxoisoindolin-2-yl)piperidine-2,6-dione] | 45 | 78 | > 10000 | 7 |
| COC1CN(Cc2ccnc(-c3ccc4c(c3)CN(C3CCC(=O)NC3=O)C4=O)c2)C1 (centres unmarked) [Example 197, 3-(5-(4-((3-methoxyazetidin-1-yl)methyl)pyridin-2-yl)-1-oxoisoindolin-2-yl)piperidine-2,6-dione] | 42 | 75 | > 10000 | 20 |
| CCOC1CN(Cc2ccnc(-c3ccc4c(c3)CN(C3CCC(=O)NC3=O)C4=O)c2)C1 (centres unmarked) [Example 198, 3-(5-(4-((3-ethoxyazetidin-1-yl)methyl)pyridin-2-yl)-1-oxoisoindolin-2-yl) piperidine-2,6-dione] | 42 | 75 | > 10000 | 18 |
| Cc1ccc(C2CCN(Cc3ccnc(-c4ccc5c(c4)CN(C4CCC(=O)NC4=O)C5=O)c3)CC2)cc1 (centres unmarked) [Example 199, 3-(1-oxo-5-(4-((4-(p-tolyl)piperidin-1-yl)methyl)pyridin-2-yl)isoindolin-2-yl)piperidine-2,6-dione] | 130 | 60 | > 10000 | 3 |
| O=C1CCC(N2Cc3cc(-c4cc(CN5CC(c6cccnc6)C5)ccn4)ccc3C2=O)C(=O)N1 (centres unmarked) [Example 203, 3-(1-oxo-5-(4-((3-(pyridin-3-yl)azetidin-1-yl)methyl)pyridin-2-yl)isoindolin-2-yl)piperidine-2,6-dione] | 440 | 69 | > 10000 | 20 |

Further compounds by falling DC50 (Helios), results first:

| DC50 (Helios) [nM] | Dmax (Helios) [%] | DC50 (Ikaros) [nM] | Dmax (Ikaros) [%] | SMILES |
| --- | --- | --- | --- | --- |
| 740 | 66 | > 10000 | 9 | NC(=O)C1CCN1Cc1ccnc(-c2ccc3c(c2)CN(C2CCC(=O)NC2=O)C3=O)c1 (centres unmarked) [Example 206, 1-((2-(2-(2,6-dioxopiperidin-3-yl)-1-oxoisoindolin-5-yl)pyridin-4-yl)methyl)azetidine-2-carboxamide] |
| 190 | 69 | > 10000 | 22 | CN(C)C(=O)C1CN(Cc2ccnc(-c3ccc4c(c3)CN(C3CCC(=O)NC3=O)C4=O)c2)C1 (centres unmarked) [Example 202, 1-((2-(2-(2,6-dioxopiperidin-3-yl)-1-oxoisoindolin-5-yl)pyridin-4-yl)methyl)-N,N-dimethylazetidine-3-carboxamide] |
| 3 | 88 | > 10000 | 13 | O=C1CCC(N2Cc3c(ccc(-c4cc(CN5CC(c6ccccc6)C5)ccn4)c3F)C2=O)C(=O)N1 (centres unmarked) [Example 208, 3-(4-Fluoro-1-oxo-5-(4-((3-phenylazetidin-1-yl)methyl)pyridin-2-yl)isoindolin-2-yl)piperidine-2,6-dione] |
